Measured values reported in PMC7552917, “Systematic exploration of different E3 ubiquitin ligases: an approach towards potent and selective CDK6 degraders” (Chemical Science, 2020).
Like-named read-outs stand apart in the source and are kept apart here.

What was measured:
[1] = elog D7.4 by chromatographic (HPLC) method; assay type: physicochemical; conditions: Polaris C18-A column, pH 7.4, read-out: elog D7.4 (experimental distribution coefficient at pH 7.4)
Description: Supplementary Information: Physical Chemistry
N. Molecular Descriptor Calculation […]
O. Physicochemical Measurements
The determination of the elog D7.4 values was performed by a chromatographic method according to […]
The column was a Polaris C18-A column (2 mm I.D., 50 mm length, 3 μm particle size) from Agilent Technologies. A linear mobile phase gradient was applied with […] TRIS buffer adjusted to pH 7.4 and MeCN. Therefore, the gradient was run from 5% […]
between the runs with a constant flow-rate of 0.8 ml/min and a temperature of 25 °C. The output wavelength of the detector was set to 269.5 nm. In order to calibrate the log D7.4 to the retention time, 6 different drugs with known log D7.4 were dissolved in DMSO and 10 µl were injected […]
Approximately 1 mg of the samples was dissolved in DMSO and 5 µl were injected. Analyses were conducted in duplicates. Subsequently, the mean retention times of the analytes were taken to calculate their log D7.4 values with aid of the calibration line.

CDK4 = molecular target: T1, CDK4 (Homo sapiens, UniProt P11802); test: CDK4 degradation, western blot of MM.1S cells; assay type: cell-based; conditions: 16 h; for remaining activity at 0.1 µM: MM1.S, read-out: D CDK4: remaining CDK4 levels
T1 construct: Percentage values are normalized to DMSO-treated MM.1S cells and the respective loading controls; endogenous in cells; host or cells: MM.1S (human multiple myeloma)
T1 sequence (P11802 whole entry): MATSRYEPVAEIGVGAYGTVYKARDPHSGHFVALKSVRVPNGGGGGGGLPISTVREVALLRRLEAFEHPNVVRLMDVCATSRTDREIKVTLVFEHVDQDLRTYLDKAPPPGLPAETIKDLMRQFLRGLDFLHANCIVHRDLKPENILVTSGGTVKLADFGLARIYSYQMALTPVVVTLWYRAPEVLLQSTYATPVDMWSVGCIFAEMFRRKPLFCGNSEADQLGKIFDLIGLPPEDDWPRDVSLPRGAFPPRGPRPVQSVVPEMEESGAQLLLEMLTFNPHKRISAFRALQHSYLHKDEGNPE
Source text: (§1) We determined the concentration of both kinases and CRBN, the latter in order to control the expression of the corresponding ligase. Since IMiDs, such as pomalidomide, cause the degradation of the lymphoid transcription factors Ikaros (IKZF1) and Aiolos (IKZF3) through the involvement of CRBN,[53],[54] this undesired effect was inspected. […] As further characteristics of CDK4/6d, the desired selectivity of CDK6 over CDK4 degradation and the unwanted influence on the IKZF1 concentration were determined. […] Next, we determined the concentration- and time-dependent activity of 11 (Fig. S2, ESI ^†).
(§2) Multiple myeloma, leukaemia, and murine cell lines:
(§3) After respective designated treatments, cells were washed with 1× PBS and lysed in IP lysis buffer (Pierce) containing HALT protease and phosphatase inhibitor cocktail (Thermo Scientific). Sodium dodecyl sulfate-polyacrylamide gel electrophoresis (SDS-PAGE) was performed with 5–20 µg of protein loaded per sample. Gel electrophoresis was carried out at a constant voltage. Proteins were transferred onto Immobilon-P transfer membranes (Millipore). Membranes were blocked with 5% milk in Tris Buffered Saline with 0.05% Tween 20 (TBS-T) followed by overnight incubation at 4 °C with shaking in primary antibodies diluted in 5% BSA in TBS-T. After incubation with respective secondary HRP-conjugated antibodies diluted in 5% milk in TBST, detection of proteins was performed using either WesternBright ECL HRP substrate or WesternBright Sirius HRP substrate (Advansta). Chemiluminescence was detected with ChemiDoc™ XRS+ System (Bio-Rad). For further detection of other proteins on the same membrane, membranes were subjected to incubation in Restore Western Blot Stripping Buffer, followed by re-blocking, and further probing of proteins was […]

CDK6 = molecular target: T2, CDK6 (Homo sapiens, UniProt Q00534); test: CDK6 degradation, western blot of MM.1S cells; assay type: cell-based; conditions: for remaining activity at 0.1 µM / remaining activity at 1 µM: read-out: D CDK6: remaining CDK6 levels; for Time CDK6 degradation persists (CDK6 protein below 50%) after drug washout: 0.1 μM for 16 h, then washout with PBS; for Persistence of CDK6 degradation after single drug exposure (long-term treatment): no washout
T2 construct: Percentage values are normalized to DMSO-treated MM.1S cells and the respective loading controls; endogenous in cells; host or cells: MM.1S (human multiple myeloma)
T2 sequence (Q00534 whole entry): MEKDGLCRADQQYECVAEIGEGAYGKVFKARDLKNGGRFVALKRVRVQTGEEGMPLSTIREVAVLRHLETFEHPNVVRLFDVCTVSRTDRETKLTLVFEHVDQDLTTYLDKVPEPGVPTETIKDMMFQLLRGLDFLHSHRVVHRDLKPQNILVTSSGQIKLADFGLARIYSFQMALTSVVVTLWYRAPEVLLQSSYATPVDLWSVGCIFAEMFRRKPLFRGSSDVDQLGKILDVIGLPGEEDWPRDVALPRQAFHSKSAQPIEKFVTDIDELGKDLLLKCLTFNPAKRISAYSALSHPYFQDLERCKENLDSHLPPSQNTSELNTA
Source text: as §1, §2, §3

HEL cells = test: Cell viability assay (CellTiter-Glo), HEL cells; assay type: cell-based; conditions: Homo sapiens, 96 h
Description: as §2
(§4) Cells were seeded in 96-well plates with media containing indicated concentrations of respective compounds and plates were incubated at 37 °C for 96 hours. Readout was performed with CellTiter-Glo® Luminescent Cell Viability Assay (Promega) according to the manufacturer’s protocol and luminescence was measured with POLARStar Omega plate reader (BMG LabTech). All results were normalized to non-treated conditions and data represent mean ±SD of biological triplicates. […]
(§5) Dose response curves were modeled and plotted by using GraphPad Prism software (GraphPad Software). Statistical analysis was performed using GraphPad Prism software (GraphPad Software).
(§6) Variance of biological replicates is represented as the standard error of the mean (SEM) or as the […]

MDA-MB-231 cells [2] = test: Cell viability assay (CellTiter-Glo), MDA-MB-231 breast cancer cells; assay type: cell-based, human; conditions: 96 h
Description: Breast cancer cell lines:
To access the compound effect on cell viability, cells were plated in 384-well tissue culture-treated plates (Greiner Bio One). Twenty-four hours later, tested compounds were added into culture to the desired concentrations. Cell viability was measured by using CellTiter-Glo® Luminescent Cell Viability Assay (Promega) at day 4 or day 7 post-treatment and normalized by non-treated controls. […]
as §5, §6

[3] = system: MM.1S, LP-1, AMO-1, MOLM-13, HEL, KG-1, K562, Nalm-6; test: Cell viability assay (CellTiter-Glo), multiple myeloma and leukemia cell lines; assay type: cell-based, human; conditions: 96 h, 0.1 or 1 μM; for Effect on cell proliferation: MM.1S, LP-1, AMO-1, MOLM-13, HEL, KG-1, K562, Nalm-6
Description: as §2, §4, §5, §6

MDA-MB-231 cells [4] = test: Cell migration (wound-healing) assay; assay type: cell-based, human; conditions: 0.1 μM, 24 h post-scratch
Description: In total 800.000 MDA-MB-231 breast cancer cells were seeded on uncoated 24-well plates (Starlab).
After 24 h DMEM medium (Pan Biotech) was removed, wells were washed twice with PBS and incubated with 0.1 µM palbociclib, 0.1 µM 34, 0.1 µM VH298 or DMSO in fresh FCS-free medium.
After 24 h of incubation, a scratch was conducted with a 100 µL pipette tip (Starlab), medium was removed, wells were washed twice with PBS and again incubated with fresh FCS-free medium containing the compounds at the aforementioned concentrations. Wound healing was observed microscopically for 24 h with 10-fold magnification (Axiovert 100, Zeiss, Germany). Migration speed was quantified according to the reduced scratch wound area over time.
as §5, §6

[5] = Susceptibility to hydrolysis in buffer, LC/MS; assay type: physicochemical; conditions: buffer pH 1, 24 h, 37 °C
Description: Next, we investigated the persistence of CDK6 degradation after single drug exposure. […] The differences were even more pronounced when conducting a drug washout-step, showing that while BSJ-03-123 kept CDK6 protein below 50% for a maximum of 6 h, CDK6 degradation mediated by PROTACs 27 and 34 was more persistent and stable for up to 72 h (Fig. 4E and S10, ESI ^†). […] Since these degraders mainly differ in the ligase-binding part, we hypothesized that the deviations in the long-term experiments (Fig. 5A) are due to chemical inactivation of the CRBN ligand. We then tested compounds 27, 34 (VHL-based) and BSJ-03-123 (8, CRBN-based) for susceptibility to hydrolysis. These PROTACs were incubated in two different buffers for 24 h at 37 °C and aliquots were analysed by LC/MS.
Fig. 5 (A) Quantification of long-term treatment experiments (see Fig. S9, ESI ^†) and (B) drug stability data at pH 1 and pH 7.4. Acetonitrile solutions of the PROTACs were mixed with two different buffers and incubated for 24 hours at 37 °C. Subsequently, aliquots were analysed by LC/MS and normalized to acetonitrile solutions.

[6] = 0.1 μM, MM.1S cells, normalized to DMSO (100%)
[7] = MM1.S, 0.1 μM, 16 h, MM.1S cells, normalized to DMSO (100%)
[8] = MM1.S, 1 μM, 16 h, MM.1S cells, normalized to DMSO (100%)

Structure (SMILES): CC(=O)c1c(C)c2cnc(Nc3ccc(N4CCN(CCOCCOCCOc5cc(-c6scnc6C)ccc5CNC(=O)[C@@H]5C[C@@H](O)CN5C(=O)[C@@H](NC(=O)C5(F)CC5)C(C)(C)C)CC4)cn3)nc2n(C2CCCC2)c1=O [34 (CST651)]
- chromatographic logD [1]: 3.1
- remaining activity at 0.1 µM (CDK4; [6]): 44%
- DC50 (CDK4; MM.1S cells): 20 nM
- Selectivity ratio D CDK4/D CDK6 for the degradation of CDK6 over CDK4 (CDK6; 0.1 μM, 16 h, MM.1S cells): 31
- remaining activity at 0.1 µM (CDK6; [7]): 1.4%
- remaining activity at 1 µM (CDK6; [8]): 8.5%
- Dmax (CDK6; MM1.S, MM.1S cells, 16 h, at a concentration as low as 100 nM, read-out: Dmax: maximum of CDK6 degradation): > 95%
- Time CDK6 degradation persists (CDK6 protein below 50%) after drug washout (CDK6; MM.1S cells): up to 72 h
- DC50 (CDK6; MM.1S cells, 16 h, 1 μM value excluded (hook effect)): 5.1 nM
- Persistence of CDK6 degradation after single drug exposure (long-term treatment) (CDK6; MM.1S cells): satisfactory CDK6 level suppression even after 96 h
- IC50 (HEL cells): 450 nM
- Inhibitory activity on cell viability relative to palbociclib (MDA-MB-231 cells [2]): inhibitory activity comparable to palbociclib
- Effect on cell proliferation [3]: inhibited cell proliferation
- Reduction of wound healing (MDA-MB-231 cells [4]): 29%
- Stability to hydrolysis at pH 1 [5]: stable

Structure (SMILES): CN[C@@H](C)C(=O)N[C@H](C(=O)N1C[C@@H](Oc2cccc(OCCOCCOCCOCCN3CCN(c4ccc(Nc5ncc6c(C)c(C(C)=O)c(=O)n(C7CCCC7)c6n5)nc4)CC3)c2)C[C@H]1C(=O)N[C@@H]1CCCc2ccccc21)C1CCCCC1 [compound 35]
- chromatographic logD [1]: 4.3
- remaining activity at 0.1 µM (CDK4): 77%
- remaining activity at 0.1 µM (CDK6; MM1.S, 16 h): 75%
- remaining activity at 1 µM (CDK6; MM1.S, 16 h): 18%
- Cell viability compared with palbociclib, VHL-series PROTACs and IAP ligand 5 ([3]; MM.1S and Nalm-6 cells): more strongly impaired

Structure (SMILES): CC(=O)c1c(C)c2cnc(Nc3ccc(N4CCNCC4)cn3)nc2n(C2CCCC2)c1=O [palbociclib, reference compound]
- IC50 (HEL cells): 4160 nM
- IC50 (MDA-MB-231 cells [2]; Homo sapiens): 260 nM
- Reduction of wound healing (MDA-MB-231 cells [4]): 17%

Structure (SMILES): Cc1ncsc1-c1ccc(CNC(=O)[C@@H]2C[C@@H](O)CN2C(=O)[C@@H](NC(=O)C2(C#N)CC2)C(C)(C)C)cc1 [4 (VH298), VH298, reference compound]
- remaining activity at 0.1 µM (CDK4): > 95%
- remaining activity at 0.1 µM (CDK6; MM1.S, 16 h): > 95%
- Reduction of wound healing (MDA-MB-231 cells [4]): did not affect the ability of MDA-MB-231 cells to migrate

Structure (SMILES): CC(=O)c1c(C)c2cnc(Nc3ccc(N4CCN(CCOCCOCCOCC(=O)N[C@H](C(=O)N5C[C@H](O)C[C@H]5C(=O)N[C@@H](C)c5ccc(-c6scnc6C)cc5)C(C)(C)C)CC4)cn3)nc2n(C2CCCC2)c1=O [27 (CST620)]
- chromatographic logD [1]: 2.9
- remaining activity at 0.1 µM (CDK4; [6]): 33%
- Selectivity ratio D CDK4/D CDK6 for the degradation of CDK6 over CDK4 (CDK6; 0.1 μM, 16 h, MM.1S cells): 19
- remaining activity at 0.1 µM (CDK6; [7]): 1.7%
- remaining activity at 1 µM (CDK6; [8]): 15%
- Time CDK6 degradation persists (CDK6 protein below 50%) after drug washout (CDK6; MM.1S cells): up to 72 h
- Persistence of CDK6 degradation after single drug exposure (long-term treatment) (CDK6; MM.1S cells): satisfactory CDK6 level suppression even after 96 h
- IC50 (HEL cells): 1540 nM
- Inhibitory activity on cell viability relative to palbociclib (MDA-MB-231 cells [2]): inhibitory activity comparable to palbociclib
- Effect on cell proliferation [3]: inhibited cell proliferation
- Stability to hydrolysis at pH 1 [5]: stable
